Entries after “also recorded” stand apart in the source; their conditions may differ.
Assays:
[1] = test system: ER-dependent induction of ALP expression in Ishikawa cells; experiment: Alkaline phosphatase (ALP) assay for estrogenicity; type: cell-based, human; conditions: for lowest concentration inducing ALP expression (starting from): single compound; for plateau of enzymatic (ALP) activity: relative to 1 nM E2 = 100%
Excerpt: In the present study, five exemplary pesticides (Figure 1B) were selected based on at least one published report of them acting as ER agonists, among them the publicly discussed herbicide glyphosate (GLP). Alkaline phosphatase (ALP) expression in Ishikawa cells was used as a natural reporter gene system for estrogenicity. On the contrary to some other in vitro test systems, this human endometrial cancer cell line expresses both, ER-α and ER-β, and thus facilitates the observation of interactions between chemicals acting as agonists to different receptor isoforms ([22]). Measuring the ALP-catalyzed conversion rate of 4-nitrophenyl phosphate to 4-nitrophenol as a marker for enzyme expression and thus ER activation, the test compounds were tested individually and in combination to generally address the concern of cumulative effects within this class of pesticides. To enable a direct comparison of effect strength, the same test system was used to determine the estrogenicity of a mixture of the most important hop polyphenols, resembling their respective concentration ratios in beer. Lastly, the two mixtures were combined in different ratios to assess potential combinatory effects toward ER activation.
ALP assays were performed as recently described ([23]). Briefly, 10,000 Ishikawa cells per well were seeded in 96-well plates and allowed to attach for 48 h in assay medium (phenol red - free DMEM/F-12 supplemented with 1% (v/v) CD-FBS and 1% (v/v) P/S). Stock solutions were prepared by solving test compounds in DMSO, which were then diluted to the test concentrations in assay medium, resulting in a final DMSO concentration of 0.1–0.2% (v/v) (depending on the number of mixed compounds in incubation solutions, but consistently reflected by the same concentration in the respective solvent control). Cells were incubated with incubation solutions containing the test compounds or combinations thereof for another 48 h. Subsequently, cells were washed with PBS and lyzed by shock-freezing. ALP activity was determined by monitoring the conversion of 4-nitrophenyl phosphate to 4-nitrophenol photometrically at 405 nm with a PerkinElmer Victor 3V^TM plate reader. The slope of the obtained dose-response curves was taken as a measure for the ER-dependent induction of ALP expression.
In brief, this method uses the mass-action law-derived median-effect equation (MDEE) to linearize dose-response curves of single compounds and combinations thereof. Subsequently, it facilitates the calculation of a parameter (the CI) which is indicative for the type and strength of a combinatory effect. […] To apply the model to ALP assay data, the latter were normalized to both, the solvent control and the positive control (1 nM E2, 100% effect). MDEE fitting and CI calculations were carried out using the CISNE tool ([26]) and MS Excel. Corresponding graphs and all further statistical calculations (normal distribution, one-way ANOVA, etc.) were carried out in Origin® 2020.

Ishikawa cells [2] = experiment: Sulforhodamine B (SRB) cell viability assay; type: cell-based, human; conditions: for Onset of cytotoxicity (lowest observed effect level), LOEL / cytotoxicity at highest applied concentration: Ishikawa cells; for Onset of cytotoxicity (lowest observed effect level), LOEL: 48 h incubation, at least three independent SRB assays; for cytotoxicity at highest applied concentration: 48 h
Method: To ensure that effects observed in ALP assays were not caused by cytotoxicity, SRB cell viability assays were carried out in parallel. As with estrogenicity assays, 10,000 cells/well were seeded in 96-well plates, allowed to grow for 48 h and incubated with test solutions for another 48 h. Afterwards, cells were fixed by addition of 50% (v/v) trichloroacetic acid and 1 h incubation at 4°C. After 2 times washing with tab water and 2 times of washing with 1% (v/v) acetic acid, plates were dried overnight, incubated with SRB reagent for 45 min, washed twice with water, twice with 1% acetic acid and again dried overnight. Lastly, 10 mM TRIS base buffer was added to dissolve protein-bound SRB and the absorbance of each well was measured at 570 nm with a PerkinElmer Victor 3V^TM plate reader.
To ensure non-cytotoxicity and thus to exclude false reporting anti-estrogenic effects, SRB cell viability assays were carried out in parallel (Ishikawa cells, 48 h incubation) to ALP assays. The single pesticides Dic, End, Fen and Met caused cytotoxic effects at high concentrations, with the lowest observed effect doses reported in Table 3. iX lead to a loss of cellular protein at the highest applied dose of 100 μM, a concentration which was however not applied in ALP assays.

[3] = test system: MCF-7 breast cancer cells; set-up: method as in PMID 28711546; conditions: cited from earlier work
[4] = set-up: method as in PMID 24038952; conditions: humans, 20 mg of XN; cited from earlier work
Ishikawa cells [5] = conditions: cited from earlier work
[6] = test system: ER-dependent induction of ALP expression in Ishikawa cells; set-up: method as in PMID 30283786; conditions: cited from earlier work
[7] = Human intervention study, pharmacokinetics of XN; type: in vivo; conditions: plasma, 20 mg, estimated from CMax/AUC assuming standard physiological parameters, read-out: bioavailability (rough estimate)
Excerpt: (§1) An often-used justification for discarding endocrine disrupting phytoestrogens in beer as a health concern is that the low bioavailability of hop polyphenols would limit systemically achieved doses to non-hazardous concentrations. At first sight, this notion seems to be supported by pharmacokinetic studies. […] This might partially result from the additional formation of 8PN from the naturally co-occurring iX, the most prevalent prenylflavonoid in beer ([24]), within the human gut ([18]) and liver ([31]). This reaction should be regarded as a metabolic activation due to the much higher estrogenicity of the reaction product. Assuming linear kinetics, the consumption of 0.5–1 L of average-hopped beer (Table 2) could result in systemic 8PN concentrations around 0.5 nM, a dose sufficient to cause significant estrogenicity in our in vitro test system (Figure 2).

[8] = Pharmacokinetics of 8PN in humans receiving an extract from hops; type: in vivo; conditions: consumption of 0.5–1 L of average-hopped beer, assuming linear kinetics
Excerpt: as §1

[9] = humans, extract from hops containing 0.25 mg 8PN; cited from earlier work
[10] = Ishikawa cells, 48 h, scaled to 1 nM E2 = 100%

CNC(=O)Oc1cc(C)c(SC)c(C)c1 [Met, methiocarb]
lowest concentration inducing ALP expression (starting from) ([1]; Ishikawa cells, 48 h): 10 nM | Onset of cytotoxicity (lowest observed effect level), LOEL (Ishikawa cells [2]): 100 µM

COc1cc(O)c(CC=C(C)C)c2c1C(=O)CC(c1ccc(O)cc1)O2 (stereo not shown) [iX, isoxanthohumol]
ED50 of ALP induction [1, 10]: 342 ± 125 nM | lowest concentration inducing ALP expression (starting from) ([1]; Ishikawa cells, 48 h): 100 nM | plateau of enzymatic (ALP) activity [1]: about 75% | Onset of cytotoxicity (lowest observed effect level), LOEL (Ishikawa cells [2]): 100 µM

OC(c1ccc(Cl)cc1)(c1cncnc1)c1ccccc1Cl (stereo not shown) [Fen, fenarimol]
lowest concentration inducing ALP expression (starting from) ([1]; Ishikawa cells, 48 h): 2.5 nM | Onset of cytotoxicity (lowest observed effect level), LOEL (Ishikawa cells [2]): 100 µM

O=S1OCC2C(CO1)C1(Cl)C(Cl)=C(Cl)C2(Cl)C1(Cl)Cl (stereo not shown) [End, endosulfan]
lowest concentration inducing ALP expression (starting from) ([1]; Ishikawa cells, 48 h): 5 nM | ED50 of ALP induction ([1]; calculated with the CISNE tool): 12300 ± 2900 nM | Onset of cytotoxicity (lowest observed effect level), LOEL (Ishikawa cells [2]): 50 µM

OC(c1ccc(Cl)cc1)(c1ccc(Cl)cc1)C(Cl)(Cl)Cl [Dic, dicofol]
lowest concentration inducing ALP expression (starting from) ([1]; Ishikawa cells, 48 h): 10 nM | Onset of cytotoxicity (lowest observed effect level), LOEL (Ishikawa cells [2]): 50 µM

C[C@]12CC[C@@H]3c4ccc(O)cc4C[C@@H](CCCCCCCCC[S+]([O-])CCCC(F)(F)C(F)(F)F)[C@H]3[C@@H]1CC[C@@H]2O (stereo partly shown) [ICI 182,780, fulvestrant, reference compound]
effect of co-incubation on estrogenicity of active compounds ([1]; co-incubation with active concentrations of the compounds): suppression of estrogenicity

O=C(O)CNCP(=O)(O)O [Glp, glyphosate]
ER-mediated gene expression (ALP) ([1]; concentrations up to 300 μM): neither ER-mediated gene expression nor cytotoxicity; also recorded: did not act estrogenic | concentration causing estrogen-like growth stimulation [3]: ≥ 59 µM | cytotoxicity (Ishikawa cells [2]; concentrations up to 300 μM): neither ER-mediated gene expression nor cytotoxicity | cytotoxicity at highest applied concentration (Ishikawa cells [2]; up to 500 μM): no cytotoxicity

COc1cc(O)c(CC=C(C)C)c(O)c1C(=O)/C=C/c1ccc(O)cc1 [XN, xanthohumol]
area under the curve (AUC) [4]: 92 ± 68 ng·h/mL | peak plasma concentration (CMax) [4]: 33 ± 7 µg/L | cytotoxicity in this experimental setup (Ishikawa cells [5]): non-cytotoxicity | estrogenicity in this test system [6]: not to act estrogenic | bioavailability [7]: ~2%

CC(C)=CCc1c(O)cc(O)c2c1O[C@H](c1ccc(O)cc1)CC2=O [8PN, 8-prenylnaringenin]
ED50 of ALP induction [1, 10]: 2.44 ± 1.60 nM | lowest concentration inducing ALP expression (starting from) ([1]; Ishikawa cells, 48 h): 0.5 nM | plateau of enzymatic (ALP) activity [1]: about 75% | estimated systemic concentration [8]: around 0.5 nM | cytotoxicity at highest applied concentration (Ishikawa cells [2]; 500 nM): no cytotoxicity | AUC [9]: 24.3 ± 8.9 ng·h/mL | CMax [9]: 1.4 ± 0.3 µg/L | Cmax [9]: 3.8 nM

Source: article PMC8215115, “Systemically Achievable Doses of Beer Flavonoids Induce Estrogenicity in Human Endometrial Cells and Cause Synergistic Effects With Selected Pesticides” (Frontiers in Nutrition, 2021)
